Data published in PubChem BioAssay (NCI).
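Five concentrations, 48 hours, 96-well plates. GI50 is the concentration that inhibits growth by half. TGI: concentration producing complete growth inhibition.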

Legend:
Assay in all cases: growth of human tumour cells (NCI), 48 h
M14 melanoma = test system: M14 melanoma
HCT-15 colon = test system: HCT-15 colon
HOP-62 NSCLC = test system: HOP-62 NSCLC
A498 renal = test system: A498 renal
SNB-19 CNS = test system: SNB-19 CNS
LOX IMVI melanoma = test system: LOX IMVI melanoma
COLO 205 colon = test system: COLO 205 colon
SN12C renal = test system: SN12C renal
EKVX NSCLC = test system: EKVX NSCLC

SMILES: COc1cc2c(c(OC)c1OC)-c1ccc(SC)c(=O)cc1[C@@H](NC(=O)c1ccc(Cl)cc1)CC2
- TGI (M14 melanoma): 2.3 µM
- TGI (HCT-15 colon): 0.026 µM
- TGI (HOP-62 NSCLC): 2.03 µM
- TGI (A498 renal): < 0.01 µM
- TGI (SNB-19 CNS): 11.1 µM
- TGI (LOX IMVI melanoma): 14.1 µM
- TGI (COLO 205 colon): 0.0265 µM
- TGI (SN12C renal): 12.7 µM

SMILES: CC1CC[C@]2(C(=O)O)CCC3(C)C(=CCC4[C@@]5(C)CC[C@H](OS(=O)(=O)c6ccccc6)C(C)(C)C5CC[C@]43C)[C@@H]2[C@H]1C (stereo not given in full)
- TGI (M14 melanoma): > 100 µM
- TGI (HOP-62 NSCLC): > 100 µM
- TGI (A498 renal): > 100 µM
- TGI (SNB-19 CNS): > 100 µM
- TGI (LOX IMVI melanoma): > 100 µM
- TGI (EKVX NSCLC): > 100 µM
- TGI (COLO 205 colon): > 100 µM
- TGI (SN12C renal): > 100 µM

SMILES: O=C(Cc1ccccc1)NN1C(=O)/C(=C\c2ccc(O)cc2)SC1=Nc1ccccc1
- TGI (M14 melanoma): > 100 µM
- TGI (HCT-15 colon): > 100 µM
- TGI (HOP-62 NSCLC): > 100 µM
- TGI (A498 renal): > 100 µM
- TGI (SNB-19 CNS): > 100 µM
- TGI (EKVX NSCLC): > 100 µM
- TGI (COLO 205 colon): > 100 µM
- TGI (SN12C renal): > 100 µM

SMILES: CCOC(=O)[C@H]1Nc2ccccc2C2c3ccccc3CC21 (stereo not given in full)
- TGI (M14 melanoma): > 100 µM
- TGI (HCT-15 colon): > 100 µM
- TGI (HOP-62 NSCLC): > 100 µM
- TGI (A498 renal): 61.8 µM
- TGI (SNB-19 CNS): > 100 µM
- TGI (LOX IMVI melanoma): > 100 µM
- TGI (COLO 205 colon): > 100 µM
- TGI (SN12C renal): 96.3 µM

SMILES: CCOC(=O)C1COc2cc(-c3cc(=O)c4ccccc4o3)ccc2O1 (stereo not given)
- TGI (M14 melanoma): > 100 µM
- TGI (SNB-19 CNS): > 100 µM
- TGI (LOX IMVI melanoma): > 100 µM
- TGI (EKVX NSCLC): > 100 µM
- TGI (COLO 205 colon): > 100 µM
- TGI (SN12C renal): > 100 µM

SMILES: O=c1cc(-c2ccccn2)[nH]c2ccc(Cl)cc12
- TGI (M14 melanoma): > 100 µM
- TGI (HOP-62 NSCLC): > 100 µM
- TGI (SNB-19 CNS): > 100 µM
- TGI (LOX IMVI melanoma): > 100 µM
- TGI (EKVX NSCLC): > 100 µM
- TGI (COLO 205 colon): > 100 µM
- TGI (SN12C renal): > 100 µM

SMILES: N[C@@H]1CCCC[C@@H]1N.O=P([O-])([O-])CN(CP(=O)([O-])[O-])CP(=O)([O-])[O-].[Pt+2]
- GI50 (M14 melanoma): > 100 µM
- TGI (M14 melanoma): > 100 µM
- GI50 (HCT-15 colon): > 100 µM
- TGI (HCT-15 colon): > 100 µM
- GI50 (HOP-62 NSCLC): > 100 µM
- TGI (HOP-62 NSCLC): > 100 µM
- GI50 (A498 renal): > 100 µM
- TGI (A498 renal): > 100 µM
- GI50 (SNB-19 CNS): > 100 µM
- TGI (SNB-19 CNS): > 100 µM
- GI50 (LOX IMVI melanoma): > 100 µM
- TGI (LOX IMVI melanoma): > 100 µM
- GI50 (COLO 205 colon): > 100 µM
- TGI (COLO 205 colon): > 100 µM
- GI50 (SN12C renal): > 100 µM
- TGI (SN12C renal): > 100 µM

SMILES: COc1nc(NC2OC(COC(C)=O)C(OC(C)=O)C(OC(C)=O)C2OC(C)=O)c(-c2csc(N)n2)c(=O)n1C (stereo not given)
- TGI (M14 melanoma): > 100 µM
- TGI (HCT-15 colon): > 100 µM
- TGI (HOP-62 NSCLC): > 100 µM
- TGI (A498 renal): > 100 µM
- TGI (SNB-19 CNS): > 100 µM
- TGI (LOX IMVI melanoma): > 100 µM
- TGI (COLO 205 colon): > 100 µM
- TGI (SN12C renal): > 100 µM

SMILES: COc1cc2cc3c4c(cc(OC)c(OC)c4c2cc1OC)CCN3C(=O)CCC(=O)NCCCN(C)C
- TGI (M14 melanoma): 32 µM
- TGI (HCT-15 colon): > 100 µM
- TGI (HOP-62 NSCLC): > 100 µM
- TGI (SNB-19 CNS): > 100 µM
- TGI (LOX IMVI melanoma): 27.3 µM
- TGI (EKVX NSCLC): > 100 µM
- TGI (COLO 205 colon): > 100 µM
- TGI (SN12C renal): > 100 µM

SMILES: C/C(CC(=O)N(C(C)C)C(C)C)=N\NC(=O)c1ccncc1
- TGI (M14 melanoma): > 100 µM
- TGI (HCT-15 colon): > 100 µM
- TGI (A498 renal): > 100 µM
- TGI (SNB-19 CNS): > 100 µM
- TGI (LOX IMVI melanoma): > 100 µM
- TGI (EKVX NSCLC): > 100 µM
- TGI (COLO 205 colon): > 100 µM
- TGI (SN12C renal): > 100 µM

SMILES: O=S(=O)(c1ccc(O)c(C=Nc2ccc(Cl)cc2)c1)c1ccc(O)c(C=Nc2ccc(Cl)cc2)c1
- TGI (M14 melanoma): > 100 µM
- TGI (HOP-62 NSCLC): > 100 µM
- TGI (A498 renal): > 100 µM
- TGI (SNB-19 CNS): > 100 µM
- TGI (LOX IMVI melanoma): > 100 µM
- TGI (EKVX NSCLC): > 100 µM
- TGI (COLO 205 colon): > 100 µM
- TGI (SN12C renal): > 100 µM

SMILES: O=C1c2ccccc2C(=O)c2nc3ccc(Cl)cc3cc21
- TGI (M14 melanoma): > 100 µM
- TGI (HCT-15 colon): > 100 µM
- TGI (HOP-62 NSCLC): > 100 µM
- TGI (SNB-19 CNS): > 100 µM
- TGI (LOX IMVI melanoma): > 100 µM
- TGI (EKVX NSCLC): > 100 µM
- TGI (COLO 205 colon): > 100 µM
- TGI (SN12C renal): > 100 µM

SMILES: CC(=O)N(Cc1ccccc1)c1ccccc1I(=O)=O
- GI50 (HCT-15 colon): 19.8 µM
- TGI (HCT-15 colon): 40.5 µM
- GI50 (A498 renal): 49.7 µM
- TGI (A498 renal): > 100 µM
- GI50 (SNB-19 CNS): 82.2 µM
- TGI (SNB-19 CNS): > 100 µM
- GI50 (LOX IMVI melanoma): 17.5 µM
- TGI (LOX IMVI melanoma): 35.6 µM
- GI50 (EKVX NSCLC): 88.5 µM
- TGI (EKVX NSCLC): > 100 µM
- GI50 (COLO 205 colon): 28.9 µM
- TGI (COLO 205 colon): 90.4 µM
- GI50 (SN12C renal): > 100 µM
- TGI (SN12C renal): > 100 µM

SMILES: COc1ccc(S(=O)(=O)N(C)CC(=O)O)cc1
- TGI (M14 melanoma): > 100 µM
- TGI (HCT-15 colon): > 100 µM
- TGI (A498 renal): > 100 µM
- TGI (SNB-19 CNS): > 100 µM
- TGI (LOX IMVI melanoma): > 100 µM
- TGI (EKVX NSCLC): > 100 µM
- TGI (COLO 205 colon): > 100 µM
- TGI (SN12C renal): > 100 µM

SMILES: CCCCCCCCCCCCCCCCOC(=O)c1cc(O)cc(C(=O)OCCCCCCCCCCCCCCCC)c1
- TGI (M14 melanoma): > 100 µM
- TGI (HCT-15 colon): > 100 µM
- TGI (A498 renal): > 100 µM
- TGI (SNB-19 CNS): > 100 µM
- TGI (LOX IMVI melanoma): > 100 µM
- TGI (EKVX NSCLC): > 100 µM
- TGI (COLO 205 colon): > 100 µM
- TGI (SN12C renal): > 100 µM

SMILES: FC1OC2OC1C(OCc1ccccc1)C(OCc1ccccc1)C2OCc1ccccc1 (stereo not given)
- TGI (M14 melanoma): > 100 µM
- TGI (HCT-15 colon): > 100 µM
- TGI (A498 renal): > 100 µM
- TGI (SNB-19 CNS): > 100 µM
- TGI (LOX IMVI melanoma): > 100 µM
- TGI (EKVX NSCLC): > 100 µM
- TGI (COLO 205 colon): > 100 µM
- TGI (SN12C renal): > 100 µM

SMILES: C[C@]12CC[C@H](OC3CCCCO3)CC1=CC[C@@H]1C2CC[C@]2(C)/C(=N/O)CCC12 (stereo not given in full)
- TGI (M14 melanoma): 63.9 µM
- TGI (HCT-15 colon): 44.5 µM
- TGI (HOP-62 NSCLC): > 100 µM
- TGI (A498 renal): > 100 µM
- TGI (SNB-19 CNS): 67.1 µM
- TGI (LOX IMVI melanoma): 27.5 µM
- TGI (EKVX NSCLC): 82.9 µM
- TGI (SN12C renal): 31.5 µM

SMILES: COc1ccc2nc3ccccc3c(NCCCCN(C)CCCl)c2c1
- TGI (M14 melanoma): 0.314 µM
- TGI (HCT-15 colon): 0.494 µM
- TGI (HOP-62 NSCLC): 0.546 µM
- TGI (SNB-19 CNS): 0.707 µM
- TGI (LOX IMVI melanoma): 0.539 µM
- TGI (EKVX NSCLC): 3.05 µM
- TGI (COLO 205 colon): 0.0789 µM
- TGI (SN12C renal): 0.128 µM
